Experimental data from paper PMC4823954, “From fighting depression to conquering tumors: a novel tricyclic thiazepine compound as a tubulin polymerization inhibitor” (Cell Death & Disease, 2016).

Columns and labels:
Assay in all cases: KINOMEscan
Type in all cases: binding
Settings in all cases: read-out: % Ctrl
[1] = target: T1, CAMK2G (Homo sapiens, UniProt Q13555)
T1 construct: purchased DiscoveRx KINOMEscan
Method in brief: (§1)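 Competition binding panel of 442 non-mutant kinases: test compound at 5 and 10 μM competed with an active-site-directed ligand for 1 h with shaking. Bound kinase was eluted with 0.5 μM ligand and quantified by qPCR; %Ctrl = (compound − positive control)/(DMSO − positive control) × 100, lower meaning tighter binding.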

[2] = target: T2, CDK2 (Homo sapiens, UniProt P24941)
T2 construct: purchased DiscoveRx KINOMEscan
Method in brief: as §1

[3] = target: T3, CDKL5 (Homo sapiens, UniProt O76039)
T3 construct: purchased DiscoveRx KINOMEscan
Method in brief: as §1

[4] = target: T4, DYRK2 (Homo sapiens, UniProt Q92630)
T4 construct: purchased DiscoveRx KINOMEscan
Method in brief: as §1

[5] = target: T5, PIK3CB (Homo sapiens, UniProt P42338)
T5 construct: purchased DiscoveRx KINOMEscan
Method in brief: as §1

[6] = target: T6, CSF1R (Homo sapiens, UniProt P07333)
T6 construct: purchased DiscoveRx KINOMEscan
Method in brief: as §1

[7] = target: T7, PCTK2 (Homo sapiens, UniProt Q00537)
T7 construct: purchased DiscoveRx KINOMEscan
Method in brief: as §1

[8] = target: T8, FER (Homo sapiens, UniProt P16591)
T8 construct: purchased DiscoveRx KINOMEscan
Method in brief: as §1

[9] = target: T9, PLK2 (Homo sapiens, UniProt Q9NYY3)
T9 construct: purchased DiscoveRx KINOMEscan
Method in brief: as §1

[10] = target: T10, EPHA5 (Homo sapiens, UniProt P54756)
T10 construct: purchased DiscoveRx KINOMEscan
Method in brief: as §1

[11] = target: T11, PIK3CA (Homo sapiens, UniProt P42336)
T11 construct: purchased DiscoveRx KINOMEscan
Method in brief: as §1

[12] = target: T12, NIM1 (Homo sapiens, UniProt Q8IY84)
T12 construct: purchased DiscoveRx KINOMEscan
Method in brief: as §1

[13] = target: T13, DMPK (Homo sapiens, UniProt Q09013)
T13 construct: purchased DiscoveRx KINOMEscan
Method in brief: as §1

[14] = target: T14, MAST1 (Homo sapiens, UniProt Q9Y2H9)
T14 construct: purchased DiscoveRx KINOMEscan
Method in brief: as §1

[15] = target: T15, TGFBR2 (Homo sapiens, UniProt P37173)
T15 construct: purchased DiscoveRx KINOMEscan
Method in brief: as §1

[16] = target: T16, ICK (Homo sapiens, UniProt Q9UPZ9)
T16 construct: purchased DiscoveRx KINOMEscan
Method in brief: as §1

[17] = target: T17, TNK1 (Homo sapiens, UniProt Q13470)
T17 construct: purchased DiscoveRx KINOMEscan
Method in brief: as §1

[18] = target: T18, CDC2L2 (Homo sapiens, UniProt Q9UQ88)
T18 construct: purchased DiscoveRx KINOMEscan
Method in brief: as §1

[19] = target: T19, BMPR1B (Homo sapiens, UniProt O00238)
T19 construct: purchased DiscoveRx KINOMEscan
Method in brief: as §1

[20] = target: T20, IKK-beta (Homo sapiens, UniProt O14920)
T20 construct: purchased DiscoveRx KINOMEscan
Method in brief: as §1

[21] = target: T21, WEE2 (Homo sapiens, UniProt P0C1S8)
T21 construct: purchased DiscoveRx KINOMEscan
Method in brief: as §1

[22] = target: T22, IKK-alpha (Homo sapiens, UniProt O15111)
T22 construct: purchased DiscoveRx KINOMEscan
Method in brief: as §1

[23] = target: T23, PIK4CB (Homo sapiens, UniProt Q9UBF8)
T23 construct: purchased DiscoveRx KINOMEscan
Method in brief: as §1

[24] = target: T24, CSNK1E (Homo sapiens, UniProt P49674)
T24 construct: purchased DiscoveRx KINOMEscan
Method in brief: as §1

[25] = target: T25, EGFR (Homo sapiens, UniProt P00533)
T25 construct: purchased DiscoveRx KINOMEscan
Method in brief: as §1

[26] = target: T26, MINK (Homo sapiens, UniProt Q8N4C8)
T26 construct: purchased DiscoveRx KINOMEscan
Method in brief: as §1

[27] = target: T27, HIPK4 (Homo sapiens, UniProt Q8NE63)
T27 construct: purchased DiscoveRx KINOMEscan
Method in brief: as §1

[28] = target: T28, AMPK-alpha1 (Homo sapiens, UniProt Q13131)
T28 construct: purchased DiscoveRx KINOMEscan
Method in brief: as §1

[29] = target: T29, PIM1 (Homo sapiens, UniProt P11309)
T29 construct: purchased DiscoveRx KINOMEscan
Method in brief: as §1

[30] = target: T30, DAPK1 (Homo sapiens, UniProt P53355)
T30 construct: purchased DiscoveRx KINOMEscan
Method in brief: as §1

[31] = target: T31, FGFR4 (Homo sapiens, UniProt P22455)
T31 construct: purchased DiscoveRx KINOMEscan
Method in brief: as §1

T3 sequence (O76039 whole entry): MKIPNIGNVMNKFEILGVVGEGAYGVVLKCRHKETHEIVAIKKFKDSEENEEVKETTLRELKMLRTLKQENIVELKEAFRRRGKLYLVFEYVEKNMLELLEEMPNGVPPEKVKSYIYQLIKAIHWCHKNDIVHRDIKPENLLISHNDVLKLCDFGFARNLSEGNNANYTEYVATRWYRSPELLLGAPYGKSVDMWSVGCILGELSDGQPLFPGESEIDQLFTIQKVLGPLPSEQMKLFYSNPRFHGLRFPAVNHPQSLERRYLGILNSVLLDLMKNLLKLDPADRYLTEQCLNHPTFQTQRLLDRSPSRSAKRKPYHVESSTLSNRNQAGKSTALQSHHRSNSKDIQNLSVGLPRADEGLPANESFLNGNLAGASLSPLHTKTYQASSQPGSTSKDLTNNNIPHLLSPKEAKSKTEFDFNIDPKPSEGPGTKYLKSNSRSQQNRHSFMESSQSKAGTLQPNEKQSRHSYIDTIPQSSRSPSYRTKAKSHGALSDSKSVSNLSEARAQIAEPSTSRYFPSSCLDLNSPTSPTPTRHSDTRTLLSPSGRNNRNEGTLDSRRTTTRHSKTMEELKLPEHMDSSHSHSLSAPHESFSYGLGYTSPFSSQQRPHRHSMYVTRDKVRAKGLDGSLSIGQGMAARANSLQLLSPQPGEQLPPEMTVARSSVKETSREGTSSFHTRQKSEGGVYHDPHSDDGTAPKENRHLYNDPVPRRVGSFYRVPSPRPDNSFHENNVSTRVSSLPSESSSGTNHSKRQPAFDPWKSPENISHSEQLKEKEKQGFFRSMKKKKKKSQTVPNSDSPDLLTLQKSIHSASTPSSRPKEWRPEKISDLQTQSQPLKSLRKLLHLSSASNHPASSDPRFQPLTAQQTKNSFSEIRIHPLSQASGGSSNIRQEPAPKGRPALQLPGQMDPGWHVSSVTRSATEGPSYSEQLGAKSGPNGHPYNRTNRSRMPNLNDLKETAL
T14 sequence (Q9Y2H9 whole entry): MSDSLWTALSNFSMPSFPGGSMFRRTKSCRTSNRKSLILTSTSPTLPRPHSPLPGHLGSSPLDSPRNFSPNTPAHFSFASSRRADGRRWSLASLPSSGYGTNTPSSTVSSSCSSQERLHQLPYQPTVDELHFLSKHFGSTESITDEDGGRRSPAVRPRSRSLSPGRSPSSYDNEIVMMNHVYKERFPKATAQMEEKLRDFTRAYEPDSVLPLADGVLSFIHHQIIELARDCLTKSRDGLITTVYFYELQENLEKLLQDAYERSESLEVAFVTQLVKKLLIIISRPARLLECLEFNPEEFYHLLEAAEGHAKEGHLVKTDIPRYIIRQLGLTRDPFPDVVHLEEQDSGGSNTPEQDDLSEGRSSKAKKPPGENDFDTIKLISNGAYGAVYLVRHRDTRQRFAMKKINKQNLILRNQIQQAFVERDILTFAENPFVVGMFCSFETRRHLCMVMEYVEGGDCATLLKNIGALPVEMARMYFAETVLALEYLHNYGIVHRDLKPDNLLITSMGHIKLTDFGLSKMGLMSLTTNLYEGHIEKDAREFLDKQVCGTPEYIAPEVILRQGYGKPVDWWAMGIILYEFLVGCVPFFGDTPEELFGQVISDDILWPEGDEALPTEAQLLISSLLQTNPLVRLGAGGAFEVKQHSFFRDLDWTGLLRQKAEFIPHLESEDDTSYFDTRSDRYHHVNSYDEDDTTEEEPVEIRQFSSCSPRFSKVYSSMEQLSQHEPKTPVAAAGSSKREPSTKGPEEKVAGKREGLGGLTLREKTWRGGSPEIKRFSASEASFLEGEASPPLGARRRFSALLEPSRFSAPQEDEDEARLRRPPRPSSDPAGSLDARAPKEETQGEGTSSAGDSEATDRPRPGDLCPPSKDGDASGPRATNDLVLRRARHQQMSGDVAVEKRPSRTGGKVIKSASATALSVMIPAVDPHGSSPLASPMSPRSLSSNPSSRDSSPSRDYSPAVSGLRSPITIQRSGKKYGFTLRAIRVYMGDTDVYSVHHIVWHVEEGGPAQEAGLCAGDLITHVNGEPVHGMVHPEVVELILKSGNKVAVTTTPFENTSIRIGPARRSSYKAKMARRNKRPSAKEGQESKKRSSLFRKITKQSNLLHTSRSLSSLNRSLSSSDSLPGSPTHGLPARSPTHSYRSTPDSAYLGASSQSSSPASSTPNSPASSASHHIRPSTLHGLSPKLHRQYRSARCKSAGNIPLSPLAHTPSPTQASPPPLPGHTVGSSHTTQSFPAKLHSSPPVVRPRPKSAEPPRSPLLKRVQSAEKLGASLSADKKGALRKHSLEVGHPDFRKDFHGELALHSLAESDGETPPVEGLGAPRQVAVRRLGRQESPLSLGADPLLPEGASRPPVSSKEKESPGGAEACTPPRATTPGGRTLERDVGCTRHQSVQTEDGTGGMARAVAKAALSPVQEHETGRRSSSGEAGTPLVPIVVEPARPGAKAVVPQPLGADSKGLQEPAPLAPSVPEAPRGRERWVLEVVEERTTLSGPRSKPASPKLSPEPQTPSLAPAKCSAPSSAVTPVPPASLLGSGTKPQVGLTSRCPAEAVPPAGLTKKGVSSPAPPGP
T16 sequence (Q9UPZ9 whole entry): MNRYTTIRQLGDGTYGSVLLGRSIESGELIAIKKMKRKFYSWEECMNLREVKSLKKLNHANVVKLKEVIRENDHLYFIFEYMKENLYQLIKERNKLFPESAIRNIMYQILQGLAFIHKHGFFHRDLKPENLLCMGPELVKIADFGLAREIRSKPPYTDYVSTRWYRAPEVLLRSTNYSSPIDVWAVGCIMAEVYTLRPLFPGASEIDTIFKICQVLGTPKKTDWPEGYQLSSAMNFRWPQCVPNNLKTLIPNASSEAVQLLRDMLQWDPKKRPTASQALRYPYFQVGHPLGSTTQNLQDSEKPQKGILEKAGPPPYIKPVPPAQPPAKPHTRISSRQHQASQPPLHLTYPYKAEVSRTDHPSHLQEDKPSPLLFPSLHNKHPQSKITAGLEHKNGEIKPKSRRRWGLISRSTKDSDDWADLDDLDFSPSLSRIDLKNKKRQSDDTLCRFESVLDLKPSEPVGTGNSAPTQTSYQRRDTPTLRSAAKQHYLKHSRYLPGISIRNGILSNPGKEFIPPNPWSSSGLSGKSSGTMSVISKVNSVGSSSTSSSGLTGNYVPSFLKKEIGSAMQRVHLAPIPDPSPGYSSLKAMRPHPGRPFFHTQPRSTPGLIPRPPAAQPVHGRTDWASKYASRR
T31 sequence (P22455 22-802): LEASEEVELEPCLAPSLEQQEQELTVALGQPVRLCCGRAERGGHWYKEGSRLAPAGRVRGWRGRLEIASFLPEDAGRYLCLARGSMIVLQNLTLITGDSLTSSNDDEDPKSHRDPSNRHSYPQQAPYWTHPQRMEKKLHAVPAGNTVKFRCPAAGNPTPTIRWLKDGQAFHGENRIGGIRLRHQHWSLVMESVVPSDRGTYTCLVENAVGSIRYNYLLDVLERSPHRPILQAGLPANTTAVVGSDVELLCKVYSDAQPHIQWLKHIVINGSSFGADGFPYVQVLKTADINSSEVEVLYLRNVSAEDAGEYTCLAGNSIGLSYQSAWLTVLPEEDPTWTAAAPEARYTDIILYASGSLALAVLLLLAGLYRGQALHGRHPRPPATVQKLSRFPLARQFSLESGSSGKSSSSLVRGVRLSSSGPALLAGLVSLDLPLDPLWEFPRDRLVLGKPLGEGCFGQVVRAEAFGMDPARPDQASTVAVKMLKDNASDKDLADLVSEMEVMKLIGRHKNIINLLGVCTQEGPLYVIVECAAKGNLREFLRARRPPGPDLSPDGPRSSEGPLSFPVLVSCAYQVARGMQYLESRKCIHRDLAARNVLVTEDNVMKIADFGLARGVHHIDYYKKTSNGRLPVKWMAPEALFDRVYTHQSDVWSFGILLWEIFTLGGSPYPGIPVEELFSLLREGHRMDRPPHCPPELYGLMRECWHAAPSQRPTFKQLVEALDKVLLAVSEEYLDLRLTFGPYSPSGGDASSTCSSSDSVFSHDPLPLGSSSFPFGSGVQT
T22 sequence (O15111 whole entry): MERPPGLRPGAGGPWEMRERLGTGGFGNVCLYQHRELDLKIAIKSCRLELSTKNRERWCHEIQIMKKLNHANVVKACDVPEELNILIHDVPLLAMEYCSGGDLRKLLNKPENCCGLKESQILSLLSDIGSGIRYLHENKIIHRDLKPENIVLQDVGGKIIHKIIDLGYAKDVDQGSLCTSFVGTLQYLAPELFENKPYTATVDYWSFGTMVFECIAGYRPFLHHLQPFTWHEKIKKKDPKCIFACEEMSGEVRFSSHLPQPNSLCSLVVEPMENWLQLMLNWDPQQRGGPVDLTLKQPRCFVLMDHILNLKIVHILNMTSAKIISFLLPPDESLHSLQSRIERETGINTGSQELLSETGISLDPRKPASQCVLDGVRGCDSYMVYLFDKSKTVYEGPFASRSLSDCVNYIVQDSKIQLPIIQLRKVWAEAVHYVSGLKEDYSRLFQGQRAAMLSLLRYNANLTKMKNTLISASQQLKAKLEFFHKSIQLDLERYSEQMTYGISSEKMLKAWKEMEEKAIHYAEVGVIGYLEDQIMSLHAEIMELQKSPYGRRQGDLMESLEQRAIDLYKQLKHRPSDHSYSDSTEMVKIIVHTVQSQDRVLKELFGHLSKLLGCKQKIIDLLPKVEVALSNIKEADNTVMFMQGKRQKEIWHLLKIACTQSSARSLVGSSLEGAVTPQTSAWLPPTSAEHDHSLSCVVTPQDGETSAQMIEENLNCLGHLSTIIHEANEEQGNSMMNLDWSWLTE
T24 sequence (P49674 whole entry): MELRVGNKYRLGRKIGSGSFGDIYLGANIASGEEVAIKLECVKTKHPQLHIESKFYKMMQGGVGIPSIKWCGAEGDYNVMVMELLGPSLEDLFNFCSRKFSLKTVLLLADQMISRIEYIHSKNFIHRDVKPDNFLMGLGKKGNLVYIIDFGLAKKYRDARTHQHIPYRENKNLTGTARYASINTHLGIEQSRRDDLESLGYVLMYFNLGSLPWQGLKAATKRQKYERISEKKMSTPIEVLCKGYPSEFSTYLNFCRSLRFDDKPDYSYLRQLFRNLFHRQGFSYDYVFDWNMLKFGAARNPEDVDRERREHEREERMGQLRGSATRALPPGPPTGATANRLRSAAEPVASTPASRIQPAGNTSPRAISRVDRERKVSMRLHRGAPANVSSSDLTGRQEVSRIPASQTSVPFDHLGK

## Cc1ccc(C2=Nc3cccnc3S(=O)(=O)c3ccccc32)cc1 [TBPT, 6-(p-tolyl)benzo[f] pyrido[2,3-b][1,4] thiazepine 11,11-dioxide]
[1]; 5 μM
  remaining binding at 5 µM: 100%
[1]; 10 μM
  remaining binding at 10 µM: 96%
[2]; 5 μM
  remaining binding at 5 µM: 98%
[2]; 10 μM
  remaining binding at 10 µM: 93%
[3]; 5 μM
  remaining binding at 5 µM: 100%
[3]; 10 μM
  remaining binding at 10 µM: 100%
[4]; 5 μM
  remaining binding at 5 µM: 93%
[4]; 10 μM
  remaining binding at 10 µM: 100%
[5]; 5 μM
  remaining binding at 5 µM: 36%
[5]; 10 μM
  remaining binding at 10 µM: 100%
[6]; 5 μM
  remaining binding at 5 µM: 93%
[6]; 10 μM
  remaining binding at 10 µM: 100%
[7]; 5 μM
  remaining binding at 5 µM: 100%
[7]; 10 μM
  remaining binding at 10 µM: 89%
[8]; 5 μM
  remaining binding at 5 µM: 93%
[8]; 10 μM
  remaining binding at 10 µM: 100%
[9]; 5 μM
  remaining binding at 5 µM: 100%
[9]; 10 μM
  remaining binding at 10 µM: 83%
[10]; 5 μM
  remaining binding at 5 µM: 92%
[10]; 10 μM
  remaining binding at 10 µM: 100%
[11]; 5 μM
  remaining binding at 5 µM: 100%
[11]; 10 μM
  remaining binding at 10 µM: 82%
[12]; 5 μM
  remaining binding at 5 µM: 90%
[12]; 10 μM
  remaining binding at 10 µM: 78%
[13]; 5 μM
  remaining binding at 5 µM: 88%
[13]; 10 μM
  remaining binding at 10 µM: 100%
[14]; 5 μM
  remaining binding at 5 µM: 45%
[14]; 10 μM
  remaining binding at 10 µM: 87%
[15]; 5 μM
  remaining binding at 5 µM: 100%
[15]; 10 μM
  remaining binding at 10 µM: 81%
[16]; 5 μM
  remaining binding at 5 µM: 100%
[16]; 10 μM
  remaining binding at 10 µM: 100%
[17]; 5 μM
  remaining binding at 5 µM: 100%
[17]; 10 μM
  remaining binding at 10 µM: 97%
[18]; 5 μM
  remaining binding at 5 µM: 100%
[18]; 10 μM
  remaining binding at 10 µM: 100%
[19]; 5 μM
  remaining binding at 5 µM: 95%
[19]; 10 μM
  remaining binding at 10 µM: 88%
[20]; 5 μM
  remaining binding at 5 µM: 84%
[20]; 10 μM
  remaining binding at 10 µM: 98%
[21]; 5 μM
  remaining binding at 5 µM: 100%
[21]; 10 μM
  remaining binding at 10 µM: 100%
[22]; 5 μM
  remaining binding at 5 µM: 56%
[22]; 10 μM
  remaining binding at 10 µM: 75%
[23]; 5 μM
  remaining binding at 5 µM: 100%
[23]; 10 μM
  remaining binding at 10 µM: 93%
[24]; 5 μM
  remaining binding at 5 µM: 100%
[24]; 10 μM
  remaining binding at 10 µM: 96%
[25]; 5 μM
  remaining binding at 5 µM: 100%
[25]; 10 μM
  remaining binding at 10 µM: 91%
[26]; 5 μM
  remaining binding at 5 µM: 89%
[26]; 10 μM
  remaining binding at 10 µM: 83%
[27]; 5 μM
  remaining binding at 5 µM: 91%
[27]; 10 μM
  remaining binding at 10 µM: 100%
[28]; 5 μM
  remaining binding at 5 µM: 100%
[28]; 10 μM
  remaining binding at 10 µM: 100%
[29]; 5 μM
  remaining binding at 5 µM: 91%
[29]; 10 μM
  remaining binding at 10 µM: 90%
[30]; 5 μM
  remaining binding at 5 µM: 83%
[30]; 10 μM
  remaining binding at 10 µM: 100%
[31]; 5 μM
  remaining binding at 5 µM: 96%
[31]; 10 μM
  remaining binding at 10 µM: 97%
